Data: PMC4304192, “KUD773, a phenylthiazole derivative, displays anticancer activity in human hormone-refractory prostate cancers through inhibition of tubulin polymerization and anti-Aurora A activity” (Journal of Biomedical Science, 2015)
pIC50: −log10 of the molar value.

Target: T1, Aurora A kinase (Homo sapiens, UniProt O14965)
T1 construct: gene AURKA
T1 sequence (O14965 1-403): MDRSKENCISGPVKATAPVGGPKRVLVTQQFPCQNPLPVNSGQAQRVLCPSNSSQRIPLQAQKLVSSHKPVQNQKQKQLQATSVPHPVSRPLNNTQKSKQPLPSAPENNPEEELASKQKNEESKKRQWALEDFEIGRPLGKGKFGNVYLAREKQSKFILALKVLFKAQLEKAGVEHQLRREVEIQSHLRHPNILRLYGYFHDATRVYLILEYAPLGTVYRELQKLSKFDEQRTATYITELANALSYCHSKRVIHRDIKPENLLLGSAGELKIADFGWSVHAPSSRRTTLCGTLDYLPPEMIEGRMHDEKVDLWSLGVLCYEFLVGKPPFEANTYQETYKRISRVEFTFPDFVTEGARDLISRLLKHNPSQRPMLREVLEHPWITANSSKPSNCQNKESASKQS
Assay: Aurora A luminescent kinase assay (Kinase-Glo Plus, […] ATP, LRRWSLG peptide substrate)
Type: biochemical

Question: `FC(F)(F)c1cccc(-c2csc(-n3ccnc3)n2)c1` [KUD773, 2-(1H-imidazol-1-yl)-4-(3-(trifluoromethyl)phenyl)thiazole] was tested. Which pIC50 did it give?
Answer: 4.52
